Tested on: HCC1806 Ub-PCNA (USP1)
Test: USP1 Western Blot Protocol (HCC1806 Ub-PCNA)
Type: cell-based
Conditions: Homo sapiens, HCC1806 cells, 4 hours
Method in brief: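 HCC1806 cells seeded overnight, then treated 4 h at 37 °C with a 5-point, 4-fold dilution series (0.1% DMSO). Lysates immunoblotted for Ub-PCNA with fluorescent detection; inhibition expressed as % vehicle from Ub-PCNA upregulation, IC50 by four-parameter logistic fit.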

| IC50 [nM] | SMILES |
| --- | --- |
| < 10 | COc1ncnc(C2CC2)c1-c1ncc2cc(-c3c(C)noc3C)c(=O)n(Cc3ccc(-c4nc(C(F)(F)F)cn4C4CC4)cc3)c2n1 [Compound I-155] |
| < 10 | COc1ncnc(C2CC2)c1-c1nc(C)c2cc(-c3cnn(C)c3)c(=O)n(Cc3ccc(-c4nc(C(F)(F)F)cn4C4CC4)cc3)c2n1 [Compound I-148, 8-({4-[1-Cyclopropyl-4-(Trifluoromethyl)Imidazol-2-Yl]Phenyl}Methyl)-2-(4-Cyclopropyl-6-Methoxypyrimidin-5-Yl)-4-Methyl-6-(1-Methylpyrazol-4-Yl)Pyrido[2,3-d]Pyrimidin-7-One] |
| 10 to 100 | COc1ncnc(C2CC2)c1-c1ncc2cc(-c3ncnn3C)c(=O)n(Cc3ccc(-c4nc(C(F)(F)F)cn4C4CC4)cc3)c2n1 [Compound I-156] |
| < 10 | COc1cc(Cn2c(=O)ccc3c(C)nc(-c4c(OC)ncnc4C4CC4)nc32)cc(F)c1-c1nc(C(F)(F)F)cn1C1CC1 [Compound I-163] |
| 10 to 100 | COc1ncnc(C2CC2)c1-c1nc(C)c2cc(-c3ncnn3C)c(=O)n(Cc3ccc(-c4nc(C(F)(F)F)cn4C4CC4)cc3)c2n1 [Compound I-167, 8-({4-[1-Cyclopropyl-4-(Trifluoromethyl)Imidazol-2-Yl]Phenyl}Methyl)-2-(4-Cyclopropyl-6-Methoxypyrimidin-5-Yl)-4-Methyl-6-(2-Methyl-1,2,4-Triazol-3-Yl)Pyrido[2,3-d]Pyrimidin-7-One] |
| 10 to 100 | COc1ncnc(C2CC2)c1-c1ncc2ccc(=O)n(Cc3ccc(-c4nc(C(F)(F)F)cn4C(C)C)cc3)c2c1F [Compound I-27, 7-(4-cyclopropyl-6-methoxypyrimidin-5-yl)-8-fluoro-1-({4-[1-isopropyl-4-(trifluoromethyl)imidazol-2-yl]phenyl}methyl)-1,6-naphthyridin-2-one] |
| < 10 | COc1ncnc(C2CC2)c1-c1ncc2cc(-c3cnn(C)n3)c(=O)n(Cc3ccc(-c4nc(C(F)(F)F)cn4C4CC4)cc3)c2n1 [Compound I-151] |
| < 10 | COc1ncnc(C2CC2)c1-c1nc(C)c2cc(C3CCN(C)CC3)c(=O)n(Cc3ccc(-c4nc(C(F)(F)F)cn4C4CC4)cc3)c2n1 [Compound I-157, 8-({4-[1-Cyclopropyl-4-(Trifluoromethyl)Imidazol-2-Yl]Phenyl}Methyl)-2-(4-Cyclopropyl-6-Methoxypyrimidin-5-Yl)-4-Methyl-6-(1-Methylpiperidin-4-Yl)Pyrido[2,3-d]Pyrimidin-7-One] |
| < 10 | COc1ncnc(C2CC2)c1-c1ncc2cc(-c3ncnn3C)c(=O)n(Cc3ccc(-c4nc(C(F)(F)F)cn4C(C)C)cc3)c2n1 [Compound I-168, 2-(4-Cyclopropyl-6-Methoxypyrimidin-5-Yl)-8-({4-[1-Isopropyl-4-(Trifluoromethyl)Imidazol-2-Yl]Phenyl}Methyl)-6-(2-Methyl-1,2,4-Triazol-3-Yl)Pyrido[2,3-d]Pyrimidin-7-One] |
| < 10 | COc1ncnc(C2CC2)c1-c1ncc2cc(-c3ncn(C)n3)c(=O)n(Cc3ccc(-c4nc(C(F)(F)F)cn4C4CC4)cc3)c2n1 [Compound I-153, 8-({4-[1-cyclopropyl-4-(trifluoromethyl)imidazo]-2-yl]phenylmethyl)-2-(4-cyclopropyl-6-methoxypyrimidin-5-yl)-6-(1-methyl-1,2,4-triazol-3-yl)pyrido[2,3-d]pyrimidin-7-one] |
| 10 to 100 | COc1ncnc(C2CC2)c1-c1ncc2ccc(=O)n(Cc3ccc(-c4cccc(C(F)(F)F)n4)cc3)c2n1 [Compound I-36, 2-(4-cyclopropyl-6-methoxypyrimidin-5-yl)-8-({4-[6-(trifluoromethyl)pyridin-2-yl]phenyl}methyl)pyrido[2,3-d]pyrimidin-7-one] |
| < 10 | COc1ncnc(C2CC2)c1-c1ncc2cc(-c3cn(C)nn3)c(=O)n(Cc3ccc(-c4nc(C(F)(F)F)cn4C4CC4)cc3)c2n1 [Compound I-150] |
| < 10 | COc1cc(Cn2c(=O)ccc3c(C)nc(-c4c(OC)ncnc4C4CC4)nc32)ccc1-c1nc(C(F)(F)F)cn1C1CC1 [Compound I-152, 8-({4-[1-cyclopropyl-4-(trifluoromethyl)imidazo]-2-yl]-3-methoxyphenylmethyl)-2-(4-cyclopropyl-6-methoxypyrimidin-5-yl)-4-methylpyrido[2,3-d]pyrimidin-7-one] |

Molecular target: T1, recombinant USP1/UAF1 enzyme complex (Homo sapiens, UniProt O94782)
T1 construct: purchased Biortus
T1 sequence (O94782 whole entry): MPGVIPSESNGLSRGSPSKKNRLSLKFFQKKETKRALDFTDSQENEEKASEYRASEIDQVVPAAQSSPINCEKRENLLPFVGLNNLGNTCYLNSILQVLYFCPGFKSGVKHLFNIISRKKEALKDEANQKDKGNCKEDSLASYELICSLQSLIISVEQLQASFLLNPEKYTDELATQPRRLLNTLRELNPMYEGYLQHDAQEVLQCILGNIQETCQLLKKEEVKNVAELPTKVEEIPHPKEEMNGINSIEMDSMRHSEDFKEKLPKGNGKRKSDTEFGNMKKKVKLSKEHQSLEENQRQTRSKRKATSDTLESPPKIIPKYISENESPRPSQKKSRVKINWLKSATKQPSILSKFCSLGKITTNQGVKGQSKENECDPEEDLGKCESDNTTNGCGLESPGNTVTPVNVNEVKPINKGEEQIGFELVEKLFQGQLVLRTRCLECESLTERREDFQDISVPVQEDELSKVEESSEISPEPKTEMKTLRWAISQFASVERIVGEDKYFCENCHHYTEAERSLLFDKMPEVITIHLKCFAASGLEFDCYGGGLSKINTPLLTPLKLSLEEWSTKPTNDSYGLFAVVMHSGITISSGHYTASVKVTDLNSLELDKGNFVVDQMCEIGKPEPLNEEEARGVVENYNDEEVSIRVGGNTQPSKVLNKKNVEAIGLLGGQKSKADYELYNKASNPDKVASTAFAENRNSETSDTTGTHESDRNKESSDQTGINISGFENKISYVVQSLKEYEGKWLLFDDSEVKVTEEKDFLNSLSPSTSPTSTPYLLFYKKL
T1 sequence (Q8TAF3 whole entry partner): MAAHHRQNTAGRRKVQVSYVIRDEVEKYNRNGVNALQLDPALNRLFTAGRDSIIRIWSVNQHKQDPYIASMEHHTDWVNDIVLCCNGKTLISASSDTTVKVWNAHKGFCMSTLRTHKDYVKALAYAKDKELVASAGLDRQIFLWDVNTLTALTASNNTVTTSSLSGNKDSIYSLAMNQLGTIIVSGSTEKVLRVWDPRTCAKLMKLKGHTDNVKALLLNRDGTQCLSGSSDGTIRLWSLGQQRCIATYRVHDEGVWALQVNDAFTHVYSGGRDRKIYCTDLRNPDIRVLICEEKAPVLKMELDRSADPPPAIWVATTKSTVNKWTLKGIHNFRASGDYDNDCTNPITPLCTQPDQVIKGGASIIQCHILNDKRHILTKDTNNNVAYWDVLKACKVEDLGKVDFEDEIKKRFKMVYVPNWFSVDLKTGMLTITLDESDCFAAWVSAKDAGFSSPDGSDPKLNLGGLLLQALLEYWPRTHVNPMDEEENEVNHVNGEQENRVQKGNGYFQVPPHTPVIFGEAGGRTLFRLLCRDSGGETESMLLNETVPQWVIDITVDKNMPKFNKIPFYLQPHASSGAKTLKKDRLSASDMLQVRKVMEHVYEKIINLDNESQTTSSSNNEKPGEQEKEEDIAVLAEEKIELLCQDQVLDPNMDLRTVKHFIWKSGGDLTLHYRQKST
Test: Enzyme assay: deubiquitinase fluorometric assay with ubiquitin-Rhodamine substrate
Type: biochemical
Conditions: USP1/UAF1, Ub-Rho110 substrate, 2 hours preincubation, 1 hour reaction
Method in brief: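 Recombinant human USP1/UAF1 (0.004 nM) preincubated with compounds (10 μM to 0.5 nM, 10 steps) for 2 h at room temperature in pH 7.5 HEPES buffer with EDTA, DTT, BSA.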

| IC50 [nM] | SMILES |
| --- | --- |
| 10 to 100 | COc1ncnc(C2CC2)c1-c1ncc2ccc(=O)n(Cc3ccc(-c4nc(C(F)(F)F)cn4C(C)C)cc3)c2c1F [Compound I-27, 7-(4-cyclopropyl-6-methoxypyrimidin-5-yl)-8-fluoro-1-({4-[1-isopropyl-4-(trifluoromethyl)imidazol-2-yl]phenyl}methyl)-1,6-naphthyridin-2-one] |
| 10 to 100 | COc1ncnc(C2CC2)c1-c1ncc2ccc(=O)n(Cc3ccc(-c4cccc(C(F)(F)F)n4)cc3)c2n1 [Compound I-36, 2-(4-cyclopropyl-6-methoxypyrimidin-5-yl)-8-({4-[6-(trifluoromethyl)pyridin-2-yl]phenyl}methyl)pyrido[2,3-d]pyrimidin-7-one] |

Reference: US20240092779A1, “USP1 INHIBITORS AND USES THEREOF” (Zentaur Therapeutics USA Inc., priority 2022, published 2024)
